{
  "source": "patent US20120041071A1",
  "about": "“[…] TREATING PAIN DUE TO OSTEOARTHRITIS” (Gruenenthal GmbH, priority 2007, published 2012)",
  "key": {"[1]": {"target": "recombinantly produced μ-opioid receptor (Homo sapiens, UniProt P35372)", "sequence (P35372 whole entry)": "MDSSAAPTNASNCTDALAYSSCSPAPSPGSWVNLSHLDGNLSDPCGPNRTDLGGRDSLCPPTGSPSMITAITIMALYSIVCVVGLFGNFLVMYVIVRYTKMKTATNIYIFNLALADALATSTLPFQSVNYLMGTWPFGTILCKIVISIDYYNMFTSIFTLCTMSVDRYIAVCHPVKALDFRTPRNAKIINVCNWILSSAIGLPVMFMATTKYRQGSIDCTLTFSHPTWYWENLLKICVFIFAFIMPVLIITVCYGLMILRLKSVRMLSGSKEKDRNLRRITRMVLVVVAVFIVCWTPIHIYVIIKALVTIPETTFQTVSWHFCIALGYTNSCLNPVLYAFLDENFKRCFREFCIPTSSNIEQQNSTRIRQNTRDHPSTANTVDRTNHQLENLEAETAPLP", "experiment": "Affinity to recombinantly produced μ-opioid receptor", "type": "binding", "conditions": "in humans; relative to morphine"}, "[2]": {"test_system": "pain", "experiment": "Clinical studies of pain-alleviating action compared with morphine", "type": "in vivo, human"}, "[3]": {"test_system": "moderate to severe pain due to arthrosis of the knee", "experiment": "Randomised, placebo-controlled double-blind study, tapentadol PR vs oxycodone HCl CR, 28 days (Example 1)", "type": "in vivo, human", "conditions": "compared with oxycodone", "experimental": "The efficacy and tolerability of tapentadol with prolonged release (prolonged release (PR)) and oxycodone HCl with controlled release (controlled release (CR)) were compared with a placebo in patients with moderate to severe pain due to arthrosis of the knee.\nPatients (N=670) were randomly selected and treated over 28 days twice with tapentadol PR 100 mg, with tapentadol PR 200 mg, with oxycodone HCl CR 20 mg or with a placebo. The dose was titrated at the start of the treatment. The primary efficacy endpoint was the average perception of pain during the preceding 24 hours at the time of the last medical examination (final visit) based on a visual analog 100-mm sale (VAS, 0 mm=no pain, 100 mm=worst pain imaginable)).\nThe study consisted of a 14-day, double-blind titration phase (3 days->11 days) followed by a 14-day double-blind maintenance phase (at the highest dose of the titration scheme in each case; see FIG. 1):\ntapentadol PR 100 mg: 25 mg (bid)->50 mg (bid)->100 mg (bid);\ntapentadol PR 200 mg: 100 mg (bid)->150 mg (bid)->200 mg (bid);\noxycodone HCl CR 20 mg: 10 mg (bid)->10 mg (bid)->20 mg (bid)."}},
  "data": [
    {"smiles": "CC[C@@H](c1cccc(O)c1)[C@@H](C)CN(C)C", "note": "[tapentadol, (−)-(1R,2R)-3-(3-dimethylamino-1-ethyl-2-methyl-propyl)-phenol]", "values": [
      {"measurement": "affinity to the recombinantly produced μ-opioid receptor, times less than that of morphine", "setting": "[1]", "value": 18, "unit": "times"},
      {"measurement": "pain-alleviating action relative to morphine", "setting": "[2]", "value": "two to three times less than that of morphine"},
      {"measurement": "tolerability with respect to gastrointestinal and central nervous system side effects", "setting": "[3]", "value": "better tolerated than oxycodone"}
    ]}
  ]
}
